{"source": "patent US20100035848A1", "about": "“THERAPY FOR DISORDERS OF THE PROXIMAL DIGESTIVE TRACT” (priority 2008, published 2010)", "target": "T1, ACE2 (Rattus norvegicus, UniProt Q5EGZ1)", "T1 construct": "from tissue; host or cells: rat stomach (excluding forestomach) homogenate", "T1 sequence (Q5EGZ1 18-805)": "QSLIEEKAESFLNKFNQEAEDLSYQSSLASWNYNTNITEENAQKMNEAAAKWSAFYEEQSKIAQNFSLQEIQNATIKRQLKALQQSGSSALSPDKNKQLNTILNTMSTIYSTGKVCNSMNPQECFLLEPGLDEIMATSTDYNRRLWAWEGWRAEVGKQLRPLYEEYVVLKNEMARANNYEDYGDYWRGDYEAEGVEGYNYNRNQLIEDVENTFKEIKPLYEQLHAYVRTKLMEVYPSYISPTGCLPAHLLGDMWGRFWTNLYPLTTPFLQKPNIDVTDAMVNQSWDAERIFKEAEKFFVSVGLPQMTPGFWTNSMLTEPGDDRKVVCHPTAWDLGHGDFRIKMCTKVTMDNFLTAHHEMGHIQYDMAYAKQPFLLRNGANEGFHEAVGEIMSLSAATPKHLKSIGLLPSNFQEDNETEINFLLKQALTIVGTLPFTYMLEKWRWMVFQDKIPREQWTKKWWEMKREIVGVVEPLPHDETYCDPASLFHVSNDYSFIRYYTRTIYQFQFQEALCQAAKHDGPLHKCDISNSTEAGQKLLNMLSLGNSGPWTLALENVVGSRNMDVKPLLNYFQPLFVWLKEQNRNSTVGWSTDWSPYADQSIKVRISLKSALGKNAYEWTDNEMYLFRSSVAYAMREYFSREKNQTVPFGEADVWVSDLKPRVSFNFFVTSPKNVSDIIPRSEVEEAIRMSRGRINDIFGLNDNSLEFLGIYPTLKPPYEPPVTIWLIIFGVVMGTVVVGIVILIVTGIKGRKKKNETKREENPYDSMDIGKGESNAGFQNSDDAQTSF", "assay": "Stomach tissue homogenates spiked with excess GL1001, ACE2 fluorescence assay", "format": "biochemical", "method": "Three hours after diclofenac treatment, all animals were sacrificed and stomachs were removed and imaged to determine the severity of gastric damage. Additionally, stomach tissue samples were taken to assess disease activity and pharmacodynamic effects. Gastric damage scores were determined from photographic images (Ma & Wallace (2003) Am. J. Physiol. Gastrointest. Liver Physiol. 279; 341-346). Removed stomachs were opened along the greater curvature, pinned out on a wax block, and photographed along a 25 mm ruler reference with a digital 35 mm camera. The lesion area was then determined using enlarged images and computer software (www.scioncorp.co/pages/scion_image_windows.htm) that allows superimposed drawing of the perimeter of a wound and calculation of the area based on the ruler reference. Stomach samples (excluding forestomach) were used for measurements of PGE2 concentration, MPO activity and ACE2 activity. […] Concentration of PGE2 from stomach tissue samples was performed as described by Souza et al. (2003), supra, and quantification was obtained by LC-MS. […] Last, the extent of inhibition of ACE2 activity was determined to establish whether GL1001 was effective in inhibiting its ACE2 target in stomach tissues. […]"}
{"compound": "CC(C)C[C@H](N[C@@H](Cc1cncn1Cc1cc(Cl)cc(Cl)c1)C(=O)O)C(=O)O", "note": "[GL1001, (S,S)-2-[1-carboxy-2-[3-(3,5-dichlorobenzyl)-3H-imidazol-4-yl]-ethylamino]-4-methylpentanoic acid]", "values": [{"measurement": "further inhibition of ACE2 on spiking", "setting": "tissue samples of Group C (dosed in vivo with GL1001) spiked with excess GL1001", "value": "no further inhibition"}, {"measurement": "decrease in the fluorescence signal (ACE2 specific activity)", "setting": "tissue samples of Groups A and B spiked with vast excess of GL1001 (>IC90)", "value": "40-50%"}]}
